The test system of the assay is P. falciparum 3D7 growth, pLDH absorbance. Kind of assay: P. falciparum 3D7 growth inhibition, dose response, strain 3D7 (AID 2305).

Usually IC50 stands for the midpoint of a concentration-inhibition curve. High values mean lower potency, low ones higher potency. In the case of `O=C(Nc1ccc2c(c1)CCC2)c1cccc(N2CCN(c3ccncc3)CC2)c1`, the IC50 was found to be 970 nM.
The value for `COc1ccc(C2C(C(=O)Nc3ccc4c(c3)OCO4)c3cc(OC)c(OC)cc3C(=O)N2C)cc1` (stereo not drawn) was 1040 nM.
Turning to `CC(C)(C)N1CCC(N(Cc2ccc(-c3ccc(C(F)(F)F)cc3)cc2)C(=O)Cn2c(CCc3cccc(F)c3F)cc(=O)c3ccccc32)CC1`, the IC50 was 790 nM.
For `Cc1ccc(O)cc1Nc1ccnc2cc(-c3csc(CNCCN4CCOCC4)n3)ccc12`, the IC50 is 880 nM. The IC50 values of the last two compounds are within 1.5-fold of each other.
`CCCOc1cc(Cc2cnc(N)nc2N)cc(OC)c1OC` returned an IC50 of 1170 nM.
Compound `NS(=O)(=O)c1ccc(Nc2nccc(-c3c(-c4cccc(NC(=O)c5c(F)cccc5F)c4)nn4ccccc34)n2)cc1` returned an IC50 of 760 nM.
In the case of `COC(=O)c1ccc(C(=O)NCCCCN2CCC(c3ccc4c(c3OC)CCCC4)CC2)cc1-c1ccc(C(F)(F)F)cc1` it was 1150 nM; in that of `O=C(NC1CCN(Cc2ccsc2)CC1)c1ccc(-c2cccc(C(F)(F)F)c2)s1`, 1440 nM.
In turn, `O=C(Nc1ccc2oc(-c3ccc(Br)cc3)nc2c1)c1ccc([N+](=O)[O-])o1` yielded an IC50 of 970 nM.
On to `CO/C(=C\C=C\c1cc2cc(Cl)c(Cl)cc2[nH]1)C(=O)NCCCN1CCCC[C@H]1C`, for which the IC50 turned out to be 790 nM.
Take `Fc1ccc2nc(-c3ccc(-c4cccc(CN5CCN(c6ccncc6)CC5)c4)cc3)[nH]c2c1`: the concentration for half-maximal inhibition (IC50) is 90 nM.
The value for `CC(C)CNCc1cccc(-c2ccc(CN(CCCN3CCN(C)CC3)C(=O)CCC3CCCC3)cc2)c1` was 880 nM; that for `O=c1cc(NCCC(CNCc2ccoc2)NCc2cc(Br)cc(Br)c2)[nH]c2ccccc12` (stereo not drawn) was 910 nM; that for `O=C(NC1CCCCCC1)[C@@H]1CCCN1C(=O)c1ccc(O)c(-c2ccc(Cl)c(Cl)c2)c1` was 340 nM.
In the case of `CCn1cc(CN2C(=O)C(c3ccccc3)(c3ccccc3)N=C2N)cn1` it was 820 nM.
In turn, `O=C(Nc1ccccc1)OCCOc1ccc(CC2SC(=O)NC2=O)cc1` (stereo not drawn) gave an IC50 of 370 nM.
The value for `CCCc1cc(C(=O)N[C@@H](Cc2ccccc2)[C@H](O)CNC2CCOCC2)c(F)c(N2CCCCS2(=O)=O)c1` was 170 nM.
The value for `O=C(Nc1ccc(-c2nc3ccccc3[nH]2)cc1)c1ccc(N2CCOCC2)c([N+](=O)[O-])c1` was 790 nM; that for `COc1ccc(-c2ncnc(C(F)(F)F)c2-c2ccc(Cl)cc2)c(O)c1` was 800 nM; that for `COc1ccc(NC(=O)[C@H](Cc2ccccc2)Nc2cc(C)nc(NCC3CCCCC3)n2)cc1` was 680 nM.
In the case of `CS(=O)(=O)N1CC2(CCN(CCC(NC(=O)Nc3ccccc3)c3ccc(Cl)c(Cl)c3)CC2)c2ccccc21` (stereo not drawn) it was 820 nM; in that of `NC(N)=Nc1nc(-c2cc(NC(=O)C(F)(F)F)cc([N+](=O)[O-])c2)cs1`, 780 nM.
Compound `O=C(Nc1ccc(C(F)(F)F)cc1)c1ccc(S(=O)(=O)NC2CCN(CC3CCCCC3)C2)cc1` (stereo not drawn) came in with an IC50 of 720 nM.
`NC1=NC2(CCCCC2)N(OCCCCCCC2CCCCC2)C(N)=N1` gave an IC50 of 360 nM. This IC50 lies about 2-fold lower than the previous one.
`CC(C)CNC(=O)c1ccnc(-c2ccc(CNC3Cc4ccccc4C3)cc2)c1`: the 50% inhibitory concentration (IC50) worked out at 790 nM. This IC50 lies about 2.2-fold higher than the previous one.
The value for `CC(O)C1CCCCN1C(=O)c1cccc(-c2cccc(-c3nc4ccccc4[nH]3)c2)c1` (stereo not drawn) was 530 nM; that for `FC(F)(F)c1ccc(/C=C/c2cncnc2Nc2ccc3nc(Cc4ccccc4)[nH]c3c2)cc1` was 610 nM; that for `O=C(Nc1ccc(C(F)(F)F)cc1)c1ccc(S(=O)(=O)NC2CCN(Cc3ccccc3)C2)cc1` (stereo not drawn) was 620 nM.
The value for `CN(C)CCCN1CCN(C(=O)c2cccc(-c3noc(C(F)(F)F)n3)c2)CC1` was 350 nM.
On to `O=C(Nc1cccc(F)c1)NC1CCN(c2ccnc3cc(Cl)ccc23)C1` (stereo not drawn), for which the 50% inhibitory concentration (IC50) was 190 nM.
In the case of `COc1ccc2ncc(F)c([C@H](O)CN3CCC(NCc4ccc5c(c4)NC(=O)CO5)CC3)c2c1`, the half-inhibitory concentration (IC50) was 170 nM. This IC50 and that of the compound before are within 1.5-fold of each other.
The value for `COc1ccc(Cl)c(CC2c3cc(O)c(Cl)cc3CCN2C)c1` (stereo not drawn) was 700 nM.
Take `CCC(C)NC(=O)Cn1c2ncccc2c(=O)n1-c1ccc(C)cc1` (stereo not drawn): the IC50 is 1260 nM. This IC50 lies about 1.8-fold higher than the previous one.

The record behind these values is PubChem BioAssay AID2305 (GlaxoSmithKline (GSK), 2010).
